The subject of one test is Uromyces viciae-Fabael. The experiment in a line: Uromyces viciae-fabae / field bean / leaf disc preventative (faba-bean rust). Type of test: in vivo, Uromyces viciae-fabae on field bean. Particulars: foliar, 288 h, 100 ppm in the applied formulation, inoculated two hours after application, assessed 12 days after application, vs untreated control leaf discs, read-out: disease control. The procedure:
(§1) Leaf disks or leaf segments of various plant species are cut from plants grown in a greenhouse. The cut leaf disks or segments are placed in multiwell plates (24-well format) onto water agar. The leaf disks are sprayed with a test solution before (preventative) or after (curative) inoculation. Compounds to be tested are prepared as DMSO solutions (max. 10 mg/ml) which are diluted to the appropriate concentration with 0.025% Tween20 just before spraying. The inoculated leaf disks or segments are incubated under defined conditions (temperature, relative humidity, light, etc.) according to the respective test system. A single evaluation of disease level is carried out 3 to 14 days after inoculation, depending on the pathosystem. Percent disease control relative to the untreated check leaf disks or segments is then calculated.
Field bean leaf discs are placed on water agar in multiwell plates (96-well format) and 10 μl of the formulated test compound diluted in acetone and a spreader pipetted onto the leaf disc. Two hours after application leaf discs are inoculated by spraying a spore suspension on the lower leaf surface. The leaf discs are incubated in a climate cabinet at 22° C. with 18 hour day and 70% relative humidity. The activity of a compound is assessed as percent disease control compared to untreated when an appropriate level of disease damage appears in untreated check leaf disks (12 days after application).
The following compounds at 100 ppm in the applied formulation give at least 80% disease control in this test when compared to untreated control leaf discs under the same conditions, which show extensive disease development.

The subject of test [1] is Puccinia recondita f. Sp. Tritici. The experiment in a line: Puccinia recondita f. sp. tritici / wheat / leaf disc preventative (brown rust). Format: in vivo, Puccinia recondita f. sp. tritici on wheat cv. Kanzler. The settings on record: foliar, 200 ppm in the applied formulation, inoculated 1 day after application, assessed 7 to 9 days after application, vs untreated control leaf disks, read-out: disease control. The method, boiled down:
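Wheat cv. Kanzler leaf segments on agar were sprayed with compound (DMSO stock diluted with 0.025% Tween20) 1 day before inoculation with spores. Segments were held at 19 °C, 75% rh, 12 h light/dark. Percent disease control versus untreated was scored 7–9 days after application.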

The test system of test [2] is Glomerella Lacenarium (Colletotrichum lacenarium). The experiment in a line: Glomerella lagenarium (Colletotrichum lagenarium) liquid culture / cucumber / preventative (anthracnose). Type of test: cell-based. The settings on record: 20 ppm in the applied formulation, liquid culture in PDB, 24° C., inhibition of growth measured photometrically 3 to 4 days after application, vs untreated control, read-out: disease control. The method in brief: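 PDB broth seeded with cryo-stored conidia, added onto compound (DMSO solution) in 96-well plates; 24° C.; photometric growth read at 3–4 d post-application; % inhibition vs untreated check.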

The next test relates to Phakopsora pachyrhizi. The experiment in a line: Phakopsora pachyrhizi / soybean / leaf disc preventative (Asian soybean rust). Format: in vivo, Phakopsora pachyrhizi on soybean. The settings on record: foliar, 200 ppm in the applied formulation, inoculated one day after application, assessed 12 to 14 days after application, vs untreated control leaf disks, read-out: disease control. The procedure: as §1
Soybean leaf disks are placed on water agar in multiwell plates (24-well format) and sprayed with the formulated test compound diluted in water. One day after application leaf discs are inoculated by spraying a spore suspension on the lower leaf surface. After an incubation period in a climate cabinet of 24-36 hours in darkness at 20° C. and 75% rh leaf disc are kept at 20° C. with 12 h light/day and 75% rh. The activity of a compound is assessed as percent disease control compared to untreated when an appropriate level of disease damage appears in untreated check leaf disks (12 to 14 days after application).
The following compounds at 200 ppm in the applied formulation give at least 80% disease control in this test when compared to untreated control leaf disks under the same conditions, which show extensive disease development.

Test [3] concerns Puccinia recondita f. Sp. Triticil. The test can be described thus: Puccinia recondita f. sp. tritici / wheat / leaf disc curative (brown rust). Type of test: in vivo, Puccinia recondita f. sp. tritici on wheat cv. Kanzler. Particulars: foliar, 200 ppm in the applied formulation, applied 1 day after inoculation, assessed 6 to 8 days after application, vs untreated control leaf disks, read-out: disease control. The method, boiled down:
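Curative leaf-segment test, cv. Kanzler: spore inoculation, dark storage 19° C/75% RH, compound spray 1 day post-inoculation. Then 12 h light/12 h dark, 19° C, 75% RH. Read-out: % disease control vs untreated check, 6–8 d after application.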

Some results are limits rather than exact numbers.

Turning to `O=C(NCc1ccc(-c2noc(C(F)(F)F)n2)cc1)c1ccc(Cl)cc1Cl` [Compound 1.8, 2,4-dichloro-N-[[4-[5-(trifluoromethyl)-1,2,4-oxadiazol-3-yl]phenyl]methyl]benzamide], the pest or weed control at 100 ppm in the test on Uromyces viciae-Fabael is no less than 80%.
`O=C(Cc1ccccc1Cl)NCc1ccc(-c2noc(C(F)(F)F)n2)cc1` [Compound 1.12, 2-(2-chlorophenyl)-N-[[4-[5-(trifluoromethyl)-1,2,4-oxadiazol-3-yl]phenyl]methyl]acetamide]: in the test with Uromyces viciae-Fabael, the pest or weed control at 100 ppm is no less than 80%. The pest or weed control at 200 ppm in test [1] was no less than 80%.
On to `CC1(C(=O)NCc2ccc(-c3noc(C(F)(F)F)n3)cc2)CC1(Cl)Cl` (stereo not drawn) [Compound 1.20, 2,2-dichloro-1-methyl-N-[[4-[5-(trifluoromethyl)-1,2,4-oxadiazol-3-yl]phenyl]methyl] cyclopropanecarboxamide], for which the inhibition of growth at 20 ppm in test [2] was no less than 80%. Further, the pest or weed control at 100 ppm with Uromyces viciae-Fabael is no less than 80%. In addition, the pest or weed control at 200 ppm in test [1] is no less than 80%.
With `CCC1(C(=O)NCc2ccc(-c3noc(C(F)(F)F)n3)cc2)C(C)C1(Cl)Cl` (stereo not drawn) [Compound 1.31, 2,2-dichloro-1-ethyl-3-methyl-N-[[4-[5-(trifluoromethyl)-1,2,4-oxadiazol-3-yl]phenyl]methyl] cyclopropanecarboxamide], the pest or weed control at 100 ppm in the test on Uromyces viciae-Fabael is no less than 80%.
Regarding `O=C(NCc1ccc(-c2noc(C(F)(F)F)n2)cc1)C1(c2ccc(Cl)cc2)CCC1` [Compound 1.13, 1-(4-chlorophenyl)-N-[[4-[5-(trifluoromethyl)-1,2,4-oxadiazol-3-yl]phenyl]methyl] cyclobutanecarboxamide], the pest or weed control at 100 ppm in the test with Uromyces viciae-Fabael is no less than 80%. The pest or weed control at 200 ppm in test [1] was no less than 80%.
In the case of `CC1(C)CC1C(=O)NCc1ccc(-c2noc(C(F)(F)F)n2)cc1` (stereo not drawn) [Compound 1.28, 2,2-dimethyl-N-[[4-[5-(trifluoromethyl)-1,2,4-oxadiazol-3-yl]phenyl]methyl] cyclopropanecarboxamide], in test [2], the inhibition of growth at 20 ppm is no less than 80%. For the same compound, the pest or weed control at 200 ppm (with Phakopsora pachyrhizi; in test [3]; in test [1]) was no less than 80% throughout.
For the compound `CC1(C(=O)NCc2ccc(-c3noc(C(F)(F)F)n3)cc2)COC1` [Compound 1.54, 3-methyl-N-[[4-[5-(trifluoromethyl)-1,2,4-oxadiazol-3-yl]phenyl]methyl] oxetane-3-carboxamide], in test [2], the inhibition of growth at 20 ppm is no less than 80%. In addition, the pest or weed control at 200 ppm (with Phakopsora pachyrhizi; in test [3]; in test [1]) was no less than 80% in each case.
On to `CC1(C(=O)NCCc2ccc(-c3noc(C(F)(F)F)n3)cc2)COC1` [Compound 1.104, 3-methyl-N-[2-[4-[5-(trifluoromethyl)-1,2,4-oxadiazol-3-yl]phenyl]ethyl]oxetane-3-carboxamide], for which the inhibition of growth at 20 ppm in test [2] was no less than 80%. The pest or weed control at 200 ppm (in the test with Phakopsora pachyrhizi; in test [3]; in test [1]) was no less than 80% in each case.
`O=C(NCc1ccc(-c2noc(C(F)(F)F)n2)cc1)c1cccc(C(F)(F)F)c1` [Compound 1.9, 3-(trifluoromethyl)-N-[[4-[5-(trifluoromethyl)-1,2,4-oxadiazol-3-yl]phenyl]methyl]benzamide]: the pest or weed control at 100 ppm with Uromyces viciae-Fabael was no less than 80%.
Consider `O=C(CC1CC1)NCc1ccc(-c2noc(C(F)(F)F)n2)cc1` [Compound 1.53, 2-cyclopropyl-N-[[4-[5-(trifluoromethyl)-1,2,4-oxadiazol-3-yl]phenyl]methyl]acetamide], for which the inhibition of growth at 20 ppm in test [2] is no less than 80%. In addition, the pest or weed control at 200 ppm (in the test on Phakopsora pachyrhizi; in test [3]; in test [1]) was no less than 80% in each case.
As to `O=C(NCc1ccc(-c2noc(C(F)(F)F)n2)c(F)c1F)C1CC1(F)F` (stereo not drawn) [Compound 1.72, N-[[2,3-difluoro-4-[5-(trifluoromethyl)-1,2,4-oxadiazol-3-yl]phenyl]methyl]-2,2-difluoro-cyclopropanecarboxamide], the inhibition of growth at 20 ppm in test [2] was no less than 80%. For the same compound, the pest or weed control at 200 ppm (with Phakopsora pachyrhizi; in test [3]; in test [1]) was no less than 80% throughout.
As for `CC1CC1C(=O)NCc1ccc(-c2noc(C(F)(F)F)n2)cc1` (stereo not drawn) [Compound 1.24, 2-methyl-N-[[4-[5-(trifluoromethyl)-1,2,4-oxadiazol-3-yl]phenyl]methyl] cyclopropanecarboxamide], the inhibition of growth at 20 ppm in test [2] was no less than 80%. Also, the pest or weed control at 200 ppm (with Phakopsora pachyrhizi; in test [3]; in test [1]) was no less than 80% in each case.
As for `O=C(Cc1ccc(C(F)(F)F)cc1)NCc1ccc(-c2noc(C(F)(F)F)n2)cc1` [Compound 1.34, N-[[4-[5-(trifluoromethyl)-1,2,4-oxadiazol-3-yl]phenyl]methyl]-2-[4-(trifluoromethyl)phenyl] acetamide], the pest or weed control at 100 ppm in the test with Uromyces viciae-Fabael is no less than 80%. The pest or weed control at 200 ppm in test [1] is no less than 80%.
`CC1CC1C(=O)NCCc1ccc(-c2noc(C(F)(F)F)n2)cc1` (stereo not drawn) [Compound 1.102, 2-methyl-N-[2-[4-[5-(trifluoromethyl)-1,2,4-oxadiazol-3-yl]phenyl]ethyl] cyclopropanecarboxamide]: the inhibition of growth at 20 ppm in test [2] is no less than 80%. Moreover, the pest or weed control at 200 ppm (in the test with Phakopsora pachyrhizi; in test [3]; in test [1]) was no less than 80% in each case.
Consider `O=C(CCc1ccc(Cl)cc1)NCc1ccc(-c2noc(C(F)(F)F)n2)cc1` [Compound 1.11, 3-(4-chlorophenyl)-N-[[4-[5-(trifluoromethyl)-1,2,4-oxadiazol-3-yl]phenyl]methyl] propanamide], for which, in the test with Uromyces viciae-Fabael, the pest or weed control at 100 ppm was no less than 80%.
The same measure, in the same setting: the same measure for `CCOc1ccc(C2(C(=O)NCc3ccc(-c4noc(C(F)(F)F)n4)cc3)CC2(F)F)cc1` (stereo not drawn) [Compound 1.35, 1-(4-ethoxyphenyl)-2,2-difluoro-N-[[4-[5-(trifluoromethyl)-1,2,4-oxadiazol-3-yl]phenyl]methyl] cyclopropanecarboxamide]: no less than 80%.
For `O=C(NCc1ccc(-c2noc(C(F)(F)F)n2)cc1)C1CCCC1` [Compound 1.16, N-[[4-[5-(trifluoromethyl)-1,2,4-oxadiazol-3-yl]phenyl]methyl] cyclopentanecarboxamide], the inhibition of growth at 20 ppm in test [2] is no less than 80%. Moreover, the pest or weed control at 200 ppm (in the test on Phakopsora pachyrhizi; in test [3]; in test [1]) was no less than 80% throughout.
For the compound `O=C(NCCc1ccc(-c2noc(C(F)(F)F)n2)cc1)C1CC1(F)F` (stereo not drawn) [Compound 1.98, 2,2-difluoro-N-[2-[4-[5-(trifluoromethyl)-1,2,4-oxadiazol-3-yl]phenyl]ethyl] cyclopropanecarboxamide], the inhibition of growth at 20 ppm in test [2] was no less than 80%. For the same compound, the pest or weed control at 200 ppm (in the test on Phakopsora pachyrhizi; in test [3]; in test [1]) was no less than 80% each time.
In the case of `O=C(CC1CC1)NCCc1ccc(-c2noc(C(F)(F)F)n2)cc1` [Compound 1.105, 2-cyclopropyl-N-[2-[4-[5-(trifluoromethyl)-1,2,4-oxadiazol-3-yl]phenyl]ethyl]acetamide], the inhibition of growth at 20 ppm in test [2] was no less than 80%. Besides, the pest or weed control at 200 ppm (in the test with Phakopsora pachyrhizi; in test [3]; in test [1]) was no less than 80% in each case.

(Values after US20180368410A1, “MICROBIOCIDAL OXADIAZOLE DERIVATIVES” (SYNGENTA PARTICIPATIONS AG, priority 2015, published 2018).)
